Results reported in PubChem BioAssay (NCI).
Values joined by “and” are separate entries in the source; they are usually repeats but may differ in a detail not shown here. Equal entries are not always repeated.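 All cell lines were grown in 96-well plates and treated with compound for 48 hours. GI50 = concentration required for 50% inhibition of growth. The concentration for full growth arrest is given as TGI.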

Assays:
Test in all cases: DTP human tumour cell line panel, 48 h
[1] = system: KM12 colon
[2] = system: HCT-15 colon
[3] = system: HCT-116 colon
[4] = system: CCRF-CEM leukemia
[5] = system: SF-539 CNS
[6] = system: HOP-92 NSCLC
[7] = system: OVCAR-8 ovarian
[8] = system: OVCAR-3 ovarian
[9] = system: OVCAR-4 ovarian
[10] = system: ACHN renal

Structure (SMILES)	TGI [1]	TGI [2]	TGI [3]	TGI [4]	TGI [5]	TGI [6]	TGI [7]	TGI [8]	TGI [9]	TGI [10]	GI50 [1]	GI50 [2]	GI50 [3]	GI50 [4]	GI50 [5]	GI50 [6]	GI50 [7]	GI50 [8]	GI50 [9]	GI50 [10]
O=P(NC12CC3CC(CC(C3)C1)C2)(N1CC1)N1CC1	> 100 µM	> 100 µM	> 100 µM	> 100 µM	75.5 µM	> 100 µM	> 100 µM	> 100 µM	> 100 µM	> 100 µM										
CN(C)c1ccc(/C=C2\N=C(c3ccc([N+](=O)[O-])cc3)OC2=O)cc1	> 100 µM	45.4 µM	> 100 µM	97.9 µM	> 100 µM	97 µM	> 100 µM	> 100 µM	> 100 µM	> 100 µM										
CO/N=C(\C)c1cccc(Nc2cc(-c3ccccc3)nc3c(O)cccc23)c1	19.1 µM	16.9 µM	15.2 µM	8.74 µM	39.9 µM	28.9 µM	25.9 µM	7.12 µM	> 100 µM	28.1 µM	3920 nM	3380 nM	3210 nM	2570 nM	10800 nM	5280 nM	5520 nM	2340 nM	61300 nM	6040 nM
COc1ccc2c(c1)C(=O)C(=O)c1cc(O)c(OC)c(OC)c1-2	3.28 µM	1.78 µM and 3.53 µM	1.6 µM and 3.09 µM	2.65 µM and 2.92 µM	3.35 µM	1.79 µM and 3.19 µM	1.6 µM and 2.98 µM	3.63 µM and 3.11 µM	1.59 µM and 2.9 µM	1.59 µM and 3.38 µM		1730 nM	1720 nM	451 nM		1700 nM	1620 nM	1650 nM	1560 nM	1970 nM
CNC(=O)c1ccc2cc(C3(O)CCn4cncc43)ccc2c1 (stereo not drawn)	> 100 µM	> 100 µM	> 100 µM	> 100 µM	> 100 µM	> 100 µM	> 100 µM	> 100 µM	> 100 µM	> 100 µM	> 100000 nM	> 100000 nM	> 100000 nM	> 100000 nM	> 100000 nM	> 100000 nM	> 100000 nM	> 100000 nM	> 100000 nM	> 100000 nM
CC(C)(C)c1[nH]cnc1/C=c1\[nH]c(=O)/c(=C/c2ccccc2)[nH]c1=O	7.44 µM	13.5 µM	15.4 µM	> 68.4 µM	0.0321 µM	9.11 µM	50.8 µM	19.2 µM	55.3 µM	35.7 µM	< 10 nM	< 10 nM	< 10 nM	< 10 nM	< 10 nM	< 11.8 nM	< 12.5 nM	< 10 nM	151 nM	< 10 nM
O=C(CF)N(O)c1ccc(/C=C/c2ccccc2)cc1	> 100 µM	> 100 µM	6.63 µM	> 100 µM	52.9 µM	35.7 µM	> 96.2 µM	19.7 µM	> 66.9 µM	30 µM	16500 nM	13300 nM	805 nM	2160 nM	8170 nM	3970 nM	2770 nM	3280 nM	5490 nM	736 nM
CN1CCN(c2ccc3nc(-c4c(N)c5c(F)cccc5[nH]c4=O)[nH]c3c2)CC1	2.07 µM and > 3.51 µM and 7.5 µM	5.43 µM and > 7.05 µM and 7.76 µM	1.93 µM and 4.35 µM and 2.4 µM	7.93 µM and > 5.89 µM and 9.41 µM	1.96 µM and 1.21 µM and 1.75 µM	4.56 µM and > 2.93 µM and 5.82 µM	3.21 µM and > 5.17 µM and 12.5 µM	2.96 µM and > 8.27 µM and 8.9 µM	4.55 µM and > 10 µM and 10.9 µM	1.83 µM and > 6.36 µM and 4.74 µM	35.7 nM and 40.6 nM and 40.7 nM	495 nM and 419 nM and 485 nM	619 nM and 466 nM and 992 nM	834 nM and 684 nM and 1010 nM	566 nM and 338 nM and 487 nM	621 nM and 422 nM and 645 nM	1260 nM and 874 nM and 1670 nM	1470 nM and 1270 nM and 3200 nM	622 nM and 498 nM and 646 nM	335 nM and 342 nM and 371 nM
Cc1noc(C)c1-c1cc(O)cc(C(O)c2ccccc2)c1 (stereo not drawn)	> 100 µM	> 100 µM	> 100 µM	> 100 µM	> 100 µM	72.9 µM	> 100 µM	> 100 µM	> 100 µM	> 100 µM	8200 nM	3520 nM	7080 nM	14800 nM	4560 nM	1020 nM	8330 nM	6650 nM	6350 nM	4760 nM
O=C(c1ccco1)c1nc2cc(F)ccc2[n+]([O-])c1C(F)(F)F	> 100 µM	39.1 µM	> 100 µM	> 100 µM	> 100 µM	58.7 µM	62 µM	46.7 µM	50.5 µM	> 100 µM	57000 nM	17800 nM	34000 nM	29900 nM	> 100000 nM	22600 nM	22500 nM	20800 nM	21500 nM	27600 nM
N#Cc1ccc(N2Cc3ccccc3OC3=C2C(=O)c2c(O)ccc(O)c2C3=O)cc1	6.1 µM	0.618 µM	0.35 µM	0.391 µM	1.38 µM	0.409 µM	2.5 µM	0.433 µM	0.793 µM	0.16 µM	1280 nM	174 nM	102 nM	55.6 nM	564 nM	163 nM	336 nM	153 nM	216 nM	54.7 nM
CC1(C)CCc2cc3c(cc2O1)OCC1c2cc4c(cc2OC31)OCO4 (stereo not drawn)	> 100 µM	> 100 µM	> 100 µM	> 100 µM	> 100 µM	> 100 µM	> 100 µM	> 100 µM	> 100 µM	> 100 µM										
